PubChem BioAssay (NCI)
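The compound was tested at five concentrations on cells cultured in 96-well plates, with a 48-hour exposure period. TGI denotes the concentration required for complete inhibition of growth.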

Assays:
Assay in all cases: inhibition of tumour cell growth, NCI panel, 48 h
[1] = tested on: A549 NSCLC
[2] = tested on: HOP-62 NSCLC
[3] = tested on: HOP-92 NSCLC
[4] = tested on: IGROV1 ovarian
[5] = tested on: OVCAR-4 ovarian
[6] = tested on: SK-MEL-2 melanoma
[7] = tested on: U251 CNS
[8] = tested on: MDA-MB-231 breast
[9] = tested on: RPMI-8226 leukemia
[10] = tested on: UO-31 renal

SMILES | TGI [1] | TGI [2] | TGI [3] | TGI [4] | TGI [5] | TGI [6] | TGI [7] | TGI [8] | TGI [9] | TGI [10]
C1CCCCC2(CCCCCCCCC3(CCC1)SCCS3)SCCS2 | > 100 µM | > 100 µM | > 100 µM | > 100 µM | > 100 µM | > 100 µM | > 100 µM | – | – | –
CCOC(=O)c1cn2c(n1)sc1cc(OC)ccc12 | > 100 µM | > 100 µM | > 100 µM | > 100 µM | > 100 µM | > 100 µM | 21.9 µM | > 100 µM | > 100 µM | > 100 µM
CN=C(Nc1ccc(OC)c2ccccc12)SC | > 10 µM | > 10 µM | > 10 µM | > 10 µM | > 10 µM | – | > 10 µM | > 10 µM | > 10 µM | –
N#CCCN(CCC#N)c1ccc(/C=C2\N=C(c3ccccc3)N(c3ccc(C(=O)O)cc3)C2=O)cc1 | > 100 µM | > 100 µM | 30.1 µM | 53.3 µM | 66.8 µM | > 100 µM | > 100 µM | > 100 µM | > 100 µM | > 100 µM
COC(=O)CCC1(CCC(=O)OC)CCCCCCC(CCC(=O)OC)(CCC(=O)OC)C(=O)C1=O | > 100 µM | > 100 µM | > 100 µM | > 100 µM | – | > 100 µM | > 100 µM | – | > 100 µM | 76.7 µM
Oc1ccc(/C=C/c2cccc(/C=C/c3ccc(O)c(O)c3)n2)cc1O | 22.2 µM | > 100 µM | 25.3 µM | 19.6 µM | > 100 µM | 32.5 µM | > 100 µM | 76.7 µM | 31.1 µM | 11.2 µM
CCc1ccc2[nH]c(O)c(C3=Nc4ccccc4C3=O)c2c1 | 59.7 µM | 41.4 µM | > 100 µM | 20.1 µM | 61.3 µM | 43.7 µM | 38.2 µM | > 100 µM | > 100 µM | 37.9 µM
CC1(C)OCC(C2OC3OC(C)(C)OC3C2c2ccccc2)O1 (stereo not given) | > 100 µM | > 100 µM | 79 µM | > 100 µM | > 100 µM | 64.8 µM | > 100 µM | > 100 µM | > 100 µM | > 100 µM
NC(=O)CSc1c2cc(O)ccc2nc2ccc(O)cc12 | > 10 µM | > 10 µM | > 10 µM | > 10 µM | > 10 µM | > 10 µM | > 10 µM | > 10 µM | > 10 µM | –
Cc1ccc(S(=O)(=O)CNC(=O)C(O)(O)C(F)(F)F)cc1 | > 100 µM | > 100 µM | > 100 µM | > 100 µM | > 100 µM | > 100 µM | > 100 µM | > 100 µM | > 100 µM | > 100 µM
COC1(C2c3ccccc3CCN2C(=O)OC(C)(C)C)C(=O)C(c2ccccc2)=C1N(C)C (stereo not given) | > 100 µM | > 100 µM | 86.2 µM | – | > 100 µM | 66.5 µM | > 100 µM | – | – | 64.4 µM
CCCCCCCCC/C=C1/CC(CO)(COC(=O)CC(C(C)C)C(C)C)OC1=O (stereo not given) | 13.9 µM | 17.4 µM | 15.8 µM | 29.1 µM | 28.4 µM | 29.7 µM | 25.6 µM | 15.6 µM | – | 18.1 µM
N#Cc1c2ccc([N+](=O)[O-])cc2c(=O)n2c1[nH]c1ccc(C(F)(F)F)cc12 | > 100 µM | > 100 µM | 51.9 µM | > 100 µM | > 100 µM | > 100 µM | > 100 µM | > 77.8 µM | 13.6 µM | 56.9 µM
COc1ccc(C2=[S+]C(c3ccccc3)(c3ccccc3)c3ccccc32)cc1 | > 100 µM | 79.3 µM | 39.4 µM | > 100 µM | 62.2 µM | 33.3 µM | 45.3 µM | 61.1 µM | 53.9 µM | –
CCOP(=O)(OCC)/C(C#N)=C/c1ccccn1 | > 100 µM | > 100 µM | > 100 µM | > 100 µM | > 100 µM | – | > 100 µM | > 100 µM | > 100 µM | –
CC[C@@H](CCCCC1CC[C@H]2CC(=O)C[C@@H]12)OC (stereo not given in full) | > 100 µM | > 100 µM | > 100 µM | > 100 µM | > 100 µM | > 100 µM | > 100 µM | > 100 µM | > 100 µM | –
COc1cc(/C=N/N=C(\N)NO)cc(OC)c1OC | > 100 µM | > 100 µM | > 100 µM | > 100 µM | > 100 µM | > 100 µM | > 100 µM | > 100 µM | > 100 µM | > 100 µM
CC(C)(C)C(=O)Oc1ccc(/C=C/C(=O)c2ccc(OC(=O)C(C)(C)C)cc2)cc1 | > 100 µM | > 100 µM | > 100 µM | > 100 µM | > 100 µM | > 100 µM | > 100 µM | > 100 µM | – | –
O=c1oc(-c2ccc(O)cc2)cc2cc(O)ccc12 | > 100 µM | > 100 µM | 96.2 µM | > 100 µM | > 100 µM | > 100 µM | – | – | > 100 µM | 81.3 µM
CCOC(=O)C(=CNc1ccc(N(C2=NCC(C)S2)c2ccc(F)c(Cl)c2)cc1)C(=O)OCC (stereo not given) | 86.1 µM | 52 µM | 36.1 µM | 44.5 µM | 65.3 µM | 43.7 µM | 48.1 µM | 30.9 µM | 72.8 µM | 38.6 µM
CC(C)=NOC(=O)CNC(=O)C(Cc1ccccc1)NC(=O)C(C)NC(=O)OC(C)(C)C (stereo not given) | > 100 µM | > 100 µM | > 100 µM | > 100 µM | > 100 µM | > 100 µM | > 100 µM | > 100 µM | > 100 µM | > 100 µM
Oc1[nH]c2ccccc2c1C1=Nc2ccccc2/C1=N\OCCOC1OCC(O)C(O)C1O (stereo not given) | > 100 µM | > 100 µM | > 100 µM | > 100 µM | > 100 µM | > 100 µM | > 100 µM | > 100 µM | > 100 µM | > 100 µM
